# Measurements from patent US10663471B2, “Fluorescent sensors of peroxynitrite targeted to the endoplasmic reticulum” (The University of Kansas, priority 2018, dated 2020).
# How the values were obtained:
# [1] = photophysical properties: quantum yields relative to rhodamine 6G in n-octanol, molar extinction coefficients in DMSO; assay type: physicochemical
# Excerpt: Optical spectroscopic properties of the pro-fluorophore Compound 3, as a representative probe, and the rhodol product (Compound 9), in n-octanol as a mimic of ER membranes, are shown in FIG. 2.
# The fluorescence emission of Compounds 1-8 was quenched by up to 1800-fold (for Compound 3, Φ=0.0004) compared to Compound 9 (Φ=0.72). However, the brightness of these sensors, calculated as the product of their measured molar extinction coefficients and quantum yields, varied by up to 30-fold (See FIGS. 2A and 2B).
# RAW 264.7 macrophages [2] = experiment: subcellular localization by confocal laser scanning microscopy; assay type: cell-based; conditions: for ratio of cytosolic (ER-associated) to nuclear fluorescence: 10 μM, 4 h, living RAW 264.7 macrophages
# Excerpt: The pro-fluorophore Compounds 1-8 can cause fluorescence in living cells upon reacting with peroxynitrite. The ability of ER-targeted sensors to detect endogenous peroxynitrite during phagocytosis was further investigated by confocal laser scanning microscopy. […] The left panels of FIGS. 7A-7B show the DIC micrographs and the right panels show the confocal laser scanning micrographs. […] When the cells were additionally treated with DNP-modified amino tentagel beads (10 micron) bound to anti-DNP IgG, cellular green fluorescence is observed and localized to the endoplasmic reticulum. In FIG. 7B, the white arrows point at phagocytosed beads. The scale bar in FIG. 7B is 25 microns. The right panel of FIG. 7A is relatively blank (white instead of black), and then fluorescence is seen in the right panel of FIG. 7B, thereby showing that there is localization to the ER by the compounds of the present invention.
# After correcting for differences in brightness, this interpretation was further supported by analysis of cells treated with Compounds 1-8 by flow cytometry.
# Analysis of Subcellular Localization.
# RAW264.7 macrophages were scraped to passage and diluted to 300,000 cells/mL in complete medium. These cells were plated in an ibiTreat-coated 8-well μ-Slide (ibidi, 300 μL of media per well) and incubated at 37° C. overnight. The next day, the wells were washed once with complete media before treatment with fluorescent probes. Fluorescent sensors in DMSO stock solutions were diluted into complete media and added to cells. ER-Tracker Blue-White DPX (ThermoFisher Scientific) was diluted in DMSO to 100 μM followed by 1:1000 dilution with complete media. Labeled tentagel beads were added to cells at 200,000 beads/mL. Cells were incubated for 4 h at 37° C. followed by imaging by confocal microscopy (without washing). Phagocytosed beads were identified by morphology such as compression of the nucleus around the bead and adjacent fluorescence of ER membranes. […] To quantify the ratio of cytosolic to nuclear fluorescence (FIG. 8), Leica LAS X 2.0.1 software was used to define regions of interest (ROI) within the cytosol, nucleus, and cell-free regions. Mean fluorescence per pixel was calculated using Leica LAS X 2.0.1 software and plotted with SD (N=20). ROI from cell-free regions were used to subtract background fluorescence for comparison.
# RAW 264.7 macrophages [3] = experiment: detection of peroxynitrite resulting from phagocytosis by flow cytometry; assay type: cell-based; conditions: for response of cellular fluorescence to SIN-1: SIN-1 50 μM, HPF 10 μM in HBSS, Fl-B 50 μM in DMEM; for cellular association (cellular fluorescence per sensor brightness): FIG. 8C
# Excerpt: The ability of the pro-fluorophore Compounds 1-8 to generate cellular fluorescence was studied. The protocol included treating living RAW 264.7 macrophages with pro-fluorophore Compounds 1-8 and quantified cellular fluorescence by flow cytometry (FIGS. 6A-6B). To trigger phagocytosis and production of endogenous peroxynitrite, these cells were additionally treated with chemically-modified amino-tentagel beads. These beads were either covalently derivatized with the fluorophore Pacific Blue, to provide a less immunostimulatory control, or covalently conjugated with DNP and non-covalently bound to anti-DNP IgG, to promote bead phagocytosis as shown in FIG. 9. To provide a spectrally orthogonal marker, lysine residues of the antibody were conjugated to PB to allow labeled beads to be distinguished from cells by flow cytometry. […] Cells were treated (4 h) with sensor Compounds 1-8 (10 μM) and 10-micron amino-tentagel beads modified either with Pacific Blue-SE (Beads-PB) or 2,4-DNP-X-SE. To the DNP-modified beads was additionally added rabbit anti-DNP IgG (Beads/IgG), conjugated to Pacific Blue via lysines, to stimulate phagocytosis.
# The ER-targeting pro-fluorophores were compared with non-ER-targeted sensors of peroxynitrite: hydroxyphenyl fluorescein (HPF) and fluorescein boronate (Fl-B). Since the fluorescence of HPF can be affected by serum proteins, cells were treated with this compound in Hank's balanced salt solution (HBSS). […] In FIG. 6B, the cells were treated with Compound 3 in DMEM media or HBSS and compared with treatment with hydroxyphenyl fluorescein (HPF, 10 μM in HBSS) and fluorescein boronate (Fl-B, 50 μM in DMEM). [SIN-1]=50 μM. [FeTMPyP]=50 μM.
# Detection of Peroxynitrite Resulting from Phagocytosis by Flow Cytometry.
# RAW264.7 macrophages were seeded on a non-treated 96-well plate (USA Scientific) in complete media (40,000 cells, 200 μL per well) 16 h prior to treatment. These cells adhere to treated plastic very strongly, and the use of non-treated plates was required for subsequent release and analysis of cells by flow cytometry. Fluorescent sensors were diluted from DMSO stock solutions into complete media (final concentration of probe=10 μM, 0.5% DMSO). Fluorescein and Compound 3 were added to Hank's Balanced Salt Solution (HBSS, Corning, pH 7.4). Labeled tentagel beads were added to this complete media or HBSS (200,000 beads/mL). The original media was carefully removed from all wells by aspiration and replaced with the treatment media containing beads and sensors (200 μL per well) in triplicate. After incubation of treated cells at 37° C. for 4 h, aqueous propidium iodide (PI, 20 μL, 30 μM, Thermo Fisher Scientific) was added to each well (final concentration of PI=3 μM). A p200 multichannel pipette was used to release the cells from the plate via sheer force. Cellular fluorescence was analyzed by flow cytometry. Viability was determined by gating based on staining of cells with compromised membranes with PI. Tentagel beads take up significant amounts of PI, making them brighter than cells at 690/50 nm. Additionally, labeling of tentagel beads with Pacific Blue makes them brighter than cells when excited at 405 nm, and additional excitation at this wavelength was used to assure that all beads were excluded from gating of live cells. Median values of fluorescence of living cells in the FITC-A channel (525/40 nm) were compared and plotted.
# [4] = cited from earlier work
# [5] = limit of detection of peroxynitrite by fluorescence spectroscopy; conditions: sensor 50 nM in PBS pH 7.4, 0.1% DMSO, 5 min, 23° C.
# Procedure: (PBS, pH 7.4, 0.1% DMSO).
# Determination of the Limit of Detection of Peroxynitrite by Compound 3.
# The concentration of a stock solution of pure peroxynitrite was measured by absorbance spectroscopy and diluted with aq. NaOH (0.1 M) to provide additional stock solutions. […] The detection limit of Compound 3 was determined based on a reported method (Yu, F., Li, P., Wang, B., and Han, K. (2013) Reversible near-infrared fluorescent probe introducing tellurium to mimetic glutathione peroxidase for monitoring the redox cycles between peroxynitrite and glutathione in vivo, J. Am. Chem. Soc. 135, 7674-7680; Shortreed, M., Kopelman, R., Kuhn, M., and Hoyland, B. (1996) Fluorescent fiber-optic calcium sensor for physiological measurements, Anal. Chem. 68, 1414-1418). The fluorescence emission at 526 nm was normalized between the minimum intensity (0 nM peroxynitrite, Fmin) and the maximum intensity (500 nM peroxynitrite, Fmax) using the following equation: (F−Fmin)/(Fmax−Fmin). […]
# cells in culture = experiment: cytotoxicity in culture (FIG. 5); assay type: cell-based; conditions: 10 μM, 48 hours in culture
# [6] = sensor 50 nM, PBS pH 7.4, 5 min, 23° C.
# Procedure: Maximal fluorescence emission was measured by fluorescence spectroscopy after treatment for 5 min at 23° C. (PBS, pH 7.4, 0.1% DMSO).
# A normalized DMSO stock solution of Compound 3 in DMSO (50 μM) was diluted 1:1000 with PBS (pH 7.4) to yield a 50 nM solution (0.1% DMSO) in triplicate. RNS and ROS were generated as described below and diluted into the solution in volumes that changed the overall volume by 0.5% or less. These solutions were mixed, incubated at room temperature for 5 min, and transferred to a quartz cell for analysis by fluorescence spectroscopy.
# The concentration of peroxynitrite was measured by absorbance spectroscopy (ε=1670 M^−1cm^−1 at 302 nm in aq. NaOH, 0.1 M). To provide stock solutions, peroxynitrite was diluted with NaOH (aq., 0.1 M). These solutions were diluted 1:1000 into solutions of Compound 3 for analysis. […] The concentration of ClO^− was verified by absorbance spectroscopy (ε=350 M^−1cm^−1 at 209 nm) in water.
# Hydroxyl radical (.OH) was generated using the Fenton reaction (Jia, X., Chen, Q., Yang, Y., Tang, Y., Wang, R., Xu, Y., Zhu, W., and Qian, X. (2016) FRET-Based Mito-Specific Fluorescent Probe for Ratiometric Detection and Imaging of Endogenous Peroxynitrite: Dyad of Cy3 and Cy5, J. Am. Chem. Soc. 138, 10778-10781). […] The concentration of H2O2 was verified by absorbance spectroscopy (ε=43.6 M^−1cm^−1 at 240 nm) in water. […]
molecule,measurement,setting,value
CNc1cc2oc3cc(=O)c(F)cc-3c(-c3ccccc3C)c2cc1F [Compound 9],quantum yield Φ,[1],0.72
same,accumulation in the ER by co-localization with ER tracker blue-white DPX,RAW 264.7 macrophages [2]; data not shown,confirmed to accumulate in the ER
same,time to extensive loss of cellular fluorescence after washing cells once with complete media (efflux),RAW 264.7 macrophages [2]; data not shown,10 to 20 min
"fluorescein boronate [Fl-B, reference compound]",response of cellular fluorescence to SIN-1,RAW 264.7 macrophages [3],responded to SIN-1 and could increase cellular fluorescence
"O=C1OC2(c3ccc(O)cc3Oc3cc(Oc4ccc(O)cc4)ccc32)c2ccccc21 (stereo not drawn) [HPF, hydroxyphenyl fluorescein, reference compound]",response of cellular fluorescence to SIN-1,RAW 264.7 macrophages [3],responded to SIN-1 and could increase cellular fluorescence
Cc1cc(N(C)c2cc3oc4cc(=O)c(F)cc-4c(-c4ccccc4C)c3cc2F)ccc1O [Compound 2],ratio of cytosolic (ER-associated) to nuclear fluorescence,RAW 264.7 macrophages [2],3.7
O=NOO [peroxynitrous acid],pKa,[4],6.84
COc1cc(N(C)c2cc3oc4cc(=O)c(F)cc-4c(-c4ccccc4C)c3cc2F)ccc1O [Compound 5],ratio of cytosolic (ER-associated) to nuclear fluorescence,RAW 264.7 macrophages [2],2.6
Cc1ccccc1-c1c2cc(F)c(=O)cc-2oc2cc(N(C)c3cc(Cl)c(O)c(Cl)c3)c(F)cc12 [Compound 8],cellular association (cellular fluorescence per sensor brightness),RAW 264.7 macrophages [3]; flow cytometry,lowest cellular association
Cc1ccccc1-c1c2cc(F)c(=O)cc-2oc2cc(N(C)c3cc(C(C)(C)C)c(O)c(C(C)(C)C)c3)c(F)cc12 [Compound 4],cellular association (cellular fluorescence per sensor brightness),RAW 264.7 macrophages [3]; flow cytometry,lower cellular association than Compound 2
Cc1ccccc1-c1c2cc(F)c(=O)cc-2oc2cc(N(C)c3cc(C)c(O)c(C)c3)c(F)cc12 [Compound 3],quantum yield Φ,[1],0.0004
same,approximate limit of detection: peroxynitrite giving a 2-fold increase in fluorescence intensity,[5],~40 nM
same,cytosolic fluorescence after addition of antibody-opsonized beads,"RAW 264.7 macrophages [2]; 10 μM sensor, tentagel beads/IgG, confocal microscopy",dramatic increase in localized cytosolic fluorescence
same,ratio of cytosolic (ER-associated) to nuclear fluorescence,RAW 264.7 macrophages [2],6.7
same,fluorescence enhancement on co-treatment with FeTMPyP,"RAW 264.7 macrophages [2]; confocal microscopy, data not shown",substantially reduced
same,accumulation in the ER by co-localization with ER tracker blue-white DPX,RAW 264.7 macrophages [2]; data not shown,confirmed to accumulate in the ER
same,"conversion by SIN-1 to Compound 9, analysis by HPLC",HPLC,cleanly convert
same,pseudo-first-order half-time t1/2 of reaction with SIN-1,"buffer, pH 7.4",49 s
same,decrease of cellular fluorescence on co-treatment with peroxynitrite decomposition catalyst FeTMPyP,"RAW 264.7 macrophages [3]; IgG-bound beads, FeTMPyP 50 μM",over 50%
same,detection of peroxynitrite upon mild treatment of cells with antibody-opsonized tentagel beads,"RAW 264.7 macrophages [3]; flow cytometry, FIG. 6B",could detect peroxynitrite
same,concentration in cells relative to Compound 5,"RAW 264.7 macrophages [3]; flow cytometry, corrected for brightness, identical conditions (FIG. 8C)",4 fold
same,change in cellular fluorescence upon addition of IgG-coated beads,"RAW 264.7 macrophages [3]; sensor 10 μM, 4 h, Beads/IgG, flow cytometry",10 fold
same,cytotoxicity,cells in culture,negligible cytotoxicity
same,"selectivity for peroxynitrite versus perchlorite, hydroxyl radical, superoxide, peroxides, nitric oxide",[6],highly selective for peroxynitrite
